Biological target: ATP-dependent translocase ABCB1 (Homo sapiens, UniProt P08183)
Assay: TP_TRANSPORTER: increase in Vinblastine intracellular accumulation (Vinblastine: 1 uM, Estramustine: 50 uM) in SKVLB 1 cells
Assay type: functional, cell-based
Conditions: skvlb 1, 50 µM

Chain of ATP-dependent translocase ABCB1 (P08183 whole entry): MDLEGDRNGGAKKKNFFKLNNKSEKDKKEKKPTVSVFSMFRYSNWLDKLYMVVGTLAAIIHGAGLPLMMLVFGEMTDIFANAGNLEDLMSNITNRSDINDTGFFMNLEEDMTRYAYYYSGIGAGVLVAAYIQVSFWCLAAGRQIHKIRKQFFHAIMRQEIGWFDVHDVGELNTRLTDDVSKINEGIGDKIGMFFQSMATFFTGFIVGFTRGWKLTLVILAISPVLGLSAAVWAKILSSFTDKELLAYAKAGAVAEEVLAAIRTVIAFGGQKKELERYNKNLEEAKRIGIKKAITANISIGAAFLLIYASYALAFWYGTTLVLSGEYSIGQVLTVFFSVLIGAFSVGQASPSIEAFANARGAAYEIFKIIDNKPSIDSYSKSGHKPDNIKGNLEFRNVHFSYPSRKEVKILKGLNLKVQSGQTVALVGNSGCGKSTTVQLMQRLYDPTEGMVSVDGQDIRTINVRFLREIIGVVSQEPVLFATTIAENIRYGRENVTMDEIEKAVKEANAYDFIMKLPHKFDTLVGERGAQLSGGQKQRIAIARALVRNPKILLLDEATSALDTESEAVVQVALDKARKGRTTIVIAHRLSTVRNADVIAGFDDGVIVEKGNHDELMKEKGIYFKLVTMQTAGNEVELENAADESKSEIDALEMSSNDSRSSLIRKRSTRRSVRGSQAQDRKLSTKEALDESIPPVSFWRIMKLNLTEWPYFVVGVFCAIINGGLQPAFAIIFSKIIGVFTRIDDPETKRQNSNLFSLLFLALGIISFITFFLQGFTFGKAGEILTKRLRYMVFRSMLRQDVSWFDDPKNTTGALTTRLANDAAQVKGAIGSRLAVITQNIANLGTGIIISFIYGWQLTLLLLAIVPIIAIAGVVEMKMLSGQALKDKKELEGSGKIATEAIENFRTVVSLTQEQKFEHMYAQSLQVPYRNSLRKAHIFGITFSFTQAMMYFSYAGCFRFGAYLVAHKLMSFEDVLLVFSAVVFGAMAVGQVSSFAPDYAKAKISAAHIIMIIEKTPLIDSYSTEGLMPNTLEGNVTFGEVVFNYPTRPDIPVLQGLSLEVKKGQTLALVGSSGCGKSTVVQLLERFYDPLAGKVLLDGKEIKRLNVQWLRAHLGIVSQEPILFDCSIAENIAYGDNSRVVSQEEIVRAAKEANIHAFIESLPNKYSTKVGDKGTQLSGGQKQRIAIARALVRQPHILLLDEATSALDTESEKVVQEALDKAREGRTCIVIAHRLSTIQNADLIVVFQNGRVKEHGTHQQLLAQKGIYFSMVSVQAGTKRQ

## C[C@]12CC[C@@H]3c4ccc(OC(=O)N(CCCl)CCCl)cc4CC[C@H]3[C@@H]1CC[C@@H]2O [ESTRAMUSTINE]
  Activity: inhibitor [+]

— ChEMBL document CHEMBL2074154, “Modulation of the function of P-glycoprotein by estramustine” (J Natl Cancer Inst, 1994)
